Laboratory results as given in publication PMC8896804 (Science Advances, 2022).

Columns and labels:
S. pusilla = assay: Survival after hyper-osmotic salinity exposure; format: in vivo, Stylochoplana pusilla; conditions: 10^−6 M OVTA, n = 45, Fig. 3B
[1] = tested on: platytocin receptor (PTR); format: cell-based; conditions: COS-7 cells transfected with ptr, cotreated with platytocin 90 min at 37°C; global Schild analysis, slope of 1; mean ± SEM, n = 4

Substance: [d(CH2)5^1, Tyr(Me)^2, Thr^4, Orn^8, Tyr^9-NH2]–vasotocin [OVTA]
- hyperosmolality (70 ppt) resistance (S. pusilla): Hyperosmolality (70 ppt) resistance is blocked by 10^−6 M OVTA
- pA2, block of platytocin-mediated IP1 accumulation [1]: 6.99 ± 0.27
